Format in all cases: cell-based
Assay [1] has as its target T1, EZH2 (Homo sapiens, UniProt Q15910).
T1 construct: expressed in transfected cells
The assay can be described thus: E-cadherin promoter-luciferase reporter high throughput screen in EZH2 adenovirus infected cells. The following applies: final compound concentration about 5 μM, 24 hours. The procedure: A high throughput screening protocol was used to identify small molecule inhibitors of EZH2. Primary breast cancer cells were transfected with the E-cadherin promoter luciferase reporter gene and infected with the EZH2 adenovirus to suppress luciferase expression 48 hours prior to compound addition. Eighteen hours prior to compound addition, cells were trypsinized and distributed into 384-well plates in 60 μl of medium using the Multidrop equipment. At time zero, compounds were transferred from 1.5 mM DMSO stocks to the cell plates in a final compound concentration of about 5 μM. […] After 24 hours, the expressed luciferase activity was measured by adding 50 μl of the medium and 10 μl of Steady-Glo luciferase reagent (Promega). Sample plates were read in the Pherastar plate reader (BMG Labtech). Each plate in the screen contains 320 compounds to be tested plus 64 control wells placed in the outer two columns on each side of the plate (>50,000 compounds are screened). […] More than 4000 small molecules were screened, which included synthetic chemicals as well as natural products that are available in the Center for Chemical Genomics (CCG) library at the University of Michigan.
Background: In a reporter assay the amount or activity of a reporter protein is the signal.

Assay [2] has as its system HME cells overexpressing EZH2. The assay can be described thus: Basement membrane invasion chamber assay, breast cell line HME overexpressing EZH2. Here is the method: (§1) A, Dose response of isoliquiritigenin on inhibiting EZH2 mediated repression. B, A reconstituted basement membrane invasion chamber assay was used to assess the invasion of breast epithelial cell line infected with EZH2 and control adenoviruses as well as SET domain mutant EZH2 adenovirus. EZH2 treated cells were also treated with SAHA, the HDAC inhibitor and isoliquiritigenin, the small molecule inhibitor of EZH2 and the control small molecule phloretin.

For assay [3], the target named is T1, EZH2. The assay can be described thus: Quantitative SYBR green RT-PCR of E cadherin transcripts in EZH2 overexpressing cells. Here is the method: A, Chemical structure of the flavonoid isoliquiritigenin. B, Quantitative SYBR green RT-PCR of EZH2 and E cadherin transcripts in cell lines over expressing EZH2 and control adenoviruses. RT-PCR on each sample was performed in duplicate, and a ratio was calculated relative to the housekeeping genes GAPDH. Transcripts were also measured in cells that were treated with isoliquiritigenin or other small molecules.
as §1

The values below come from patent publication US8524682B2, “Compositions and methods for inhibiting EZH2” (The Regents of the University of Michigan, priority 2007, dated 2013).

T1 sequence (Q15910 whole entry): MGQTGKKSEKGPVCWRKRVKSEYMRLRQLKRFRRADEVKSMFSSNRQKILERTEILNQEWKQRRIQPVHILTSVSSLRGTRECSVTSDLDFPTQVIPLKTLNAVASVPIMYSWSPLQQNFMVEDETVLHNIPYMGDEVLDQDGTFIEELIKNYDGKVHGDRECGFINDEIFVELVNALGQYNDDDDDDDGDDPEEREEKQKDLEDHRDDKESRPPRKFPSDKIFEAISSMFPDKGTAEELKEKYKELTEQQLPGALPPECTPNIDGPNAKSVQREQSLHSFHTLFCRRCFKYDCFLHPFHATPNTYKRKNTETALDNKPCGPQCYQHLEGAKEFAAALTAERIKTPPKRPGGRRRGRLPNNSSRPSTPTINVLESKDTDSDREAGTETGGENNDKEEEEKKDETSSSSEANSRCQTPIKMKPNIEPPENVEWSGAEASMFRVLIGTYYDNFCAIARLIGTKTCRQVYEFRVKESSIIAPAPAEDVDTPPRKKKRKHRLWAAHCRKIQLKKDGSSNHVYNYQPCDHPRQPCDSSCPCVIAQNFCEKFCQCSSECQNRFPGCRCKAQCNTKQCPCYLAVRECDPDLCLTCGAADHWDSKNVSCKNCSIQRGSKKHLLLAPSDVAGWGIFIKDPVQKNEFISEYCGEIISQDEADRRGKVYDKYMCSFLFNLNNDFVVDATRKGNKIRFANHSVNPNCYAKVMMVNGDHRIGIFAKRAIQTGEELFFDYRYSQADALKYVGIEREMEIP

Turning to `O=C(/C=C/c1ccc(O)cc1)c1ccc(O)cc1O` [isoliquiritigenin], the EZH2 inhibitory activity result at EZH2 [1] is given as “potent small molecule inhibitor of EZH2 activity”. In assay [2], the “inhibition of invasion mediated by EZH2 overexpression” value was “inhibited this invasion”. For the same compound, the “inhibition of EZH2 mediated E cadherin repression” value at EZH2 [3] (RT-PCR, cells over expressing EZH2) is on record as “significantly inhibit”. On EZH2 [3] (dose response), the “concentration that optimally inhibits the EZH2 mediated E cadherin repression” value was 16 µM.
